Assay results from patent publication US20100273875A1, “Composition for External Application to Skin” (KAO CORPORATION, priority 2007, published 2010).

How the values were obtained:
[1] = David Malka et al., Journal of Hepathology, 1997; cited from earlier work
[2] = system: hairless mice irradiated with UV-B; test: Evaluation of wrinkle-preventing effect (visual evaluation of wrinkles), Example 1; type: in vivo; settings: 100 μL/day after UV-B, five times a week over 12 weeks
Description: (§1) Six-week-old ICR/HR female mice prepared by mating HR/HR mice with HaM/ICR mice were used as wrinkle model animals (wrinkle-formed hairless mice). The mice were allowed to take feed and water freely and raised in an ultraviolet-free environment of a temperature of 23° C. and a humidity of 55%.
(§2) The hairless mice raised as above were divided into 7 groups each having 8 mice and were irradiated with UV-B. UV-B irradiation was performed according to a known general method described in Tsukahara et al. (Br. J. Dermatol., 2004, 151, p. 984-994) or the like. Specifically, the hairless mice raised as above were placed in cages and irradiated with UV-B using Toshiba SE lamps. Irradiation was performed at an irradiance level of 40 to 50 mJ/cm^2, which corresponds to 0.8 to 1 MED (minimal erythema dose) for general 6-week-old hairless mice, over 12 weeks five times a week.
(§3) Samples to be applied to the hairless mice were prepared as 1% Exemplified Compound (1)/90% ethanol (EtOH) solution, 3% Exemplified Compound (1)/90% EtOH solution, 1% Exemplified Compound (2)/90% EtOH solution, 1% Exemplified Compound (3)/90% EtOH solution, 0.1% Exemplified Compound (4)/90% EtOH solution, and 1% Exemplified Compound (5)/90% EtOH solution.
(§4) Immediately after the ultraviolet ray irradiation, 90% EtOH (control) and the samples prepared as above were applied to the hairless mice of the respective groups over 12 weeks with five times a week at a dose of 100 μL/day. The groups of the hairless mice applied with the samples include “90% EtOH control group” consisting of the mice applied with 90% EtOH, “1%-compound 1 group” consisting of the mice applied with 1% Exemplified Compound (1)/90% EtOH solution, “3%-compound 1 group” consisting of the mice applied with 3% Exemplified Compound (1)/90% EtOH solution, “1%-compound 2 group” consisting of the mice applied with 1% Exemplified Compound (2)/90% EtOH solution, “1%-compound 3 group” consisting of the mice applied with 1% Exemplified Compound (3)/90% EtOH solution, “0.1%-compound 4 group” consisting of the mice applied with 0.1% Exemplified Compound (4)/90% EtOH solution, and “1%-compound 5 group” consisting of the mice applied with 1% Exemplified Compound (5)/90% EtOH solution.
(§5) Five-grade evaluation for wrinkles was performed to classify wrinkles into grades 0 to 4 by reference to the method described in Bisselt et al. (Photochem. Photobiol., 1989, 50, p. 763-769) by a known method described in Tsukahara et al. (Br. J. Dermatol., 2004, 151, p. 984-994) or the like.
The score of the 90% EtOH control group was defined as 100, and wrinkle scores of the respective groups were evaluated based on the five-grade evaluation.

[3] = system: hairless mice irradiated with UV-B; test: Replica image analysis (image analysis area ratio), Example 1; type: in vivo; settings: 100 μL/day after UV-B, five times a week over 12 weeks
Description: as §1, §2, §3, §4
Replica collection and image analysis were performed as described below. A replica was collected from the skin of the back of each hairless mouse using a rubber-based silicon impression material (GC Corporation) by a known method described in Tsukahara K et al. (Br. J. Dermatol., 2004, 151, p. 984-994) or the like.
(§6) The collected replicas were cut out into pieces with a diameter of 1.8 cm, and the pieces were lined with the impression material to correct the pieces and subjected to an image analysis. The image analysis was performed using PIAS LA-555 (PIAS Corporation) by irradiating each piece with light from a direction of oblique 30 degrees to quantify shadows formed in an area of 10 mm×10 mm (image analysis area ratio (%)).
The image analysis area ratio of the 90% EtOH control group was defined as 100, and the image analysis area ratios (%) of the respective groups were evaluated based on the image analysis area ratios obtained by the quantification.

[4] = system: hairless mice irradiated with UV-B; test: Measurement of skin elasticity (Ue, Cutometer), Example 1; type: in vivo; settings: 100 μL/day after UV-B, five times a week over 12 weeks
Description: as §1, §2, §3, §4
(§7) Measurement of skin elasticity was performed by a known method described in Tsukahara K et al. (Br. J. Dermatol., 2004, 151, p. 984-994) using Cutometer SEM575 (C+K Corporation) to measure a displacement formed in 2 seconds in total with a 1-second suction of 100 mb, followed by a 1-second relaxation period. Measurement was performed five times for each mouse to determine Ue, which is a parameter of an instantaneous elasticity displacement. The Ue value of the 90% EtOH control group was defined as 100, and Ue values of the respective groups were determined.

[5] = system: hairless mice irradiated with UV-B; test: Comprehensive evaluation of photoaging- and wrinkle-preventing effect, Example 1; type: in vivo
Description: as §1, §2, §3, §4, §5, §6, §7

[6] = system: wrinkle-formed hairless mice; test: Evaluation of wrinkle-improving effect (visual evaluation of wrinkles), Example 2; type: in vivo; settings: 1% in 90% EtOH, five times a week over 6 weeks, after 10 weeks of UV-B; versus 90% EtOH control group
Description: Wrinkle-formed hairless mice were prepared according to the description in the sections (1) and (2)(ii) of the above Example 1 by irradiating 6-week-old ICR/HR female mice, prepared by mating HR/HR with HaM/ICR, with UV-B over 10 weeks five times a week.
The hairless mice having wrinkles formed by irradiation with UV-B were visually evaluated with reference to the method described in Bisselt et al. (Photochem. Photobiol., 1989, 50, p. 763-769) by a known method described in Tsukahara et al. (Br. J. Dermatol., 2004, 151, p. 984-994) to divide the mice into two groups each having eight mice so that the average values of wrinkle scores (evaluated according to the description in the section 2)[…])) of the respective groups were almost the same.
A sample to be applied to the wrinkle-formed hairless mice was prepared as 1% compound (1)/90% EtOH solution.
The 90% EtOH (control) and the sample prepared as above were applied to the wrinkle-formed hairless mice of the respective groups over 6 weeks with five times a week at a dose of […]. The groups of the wrinkle-formed hairless mice applied with the samples include “90% EtOH control group” consisting of the mice applied with 90% EtOH, and “1%-compound 1 group” consisting of the mice applied with 1% Exemplified Compound (1)/90% EtOH solution. […]

| SMILES | wrinkle formation inhibiting effect (wrinkle score, visual evaluation) ([2]; 1% in 90% EtOH) | wrinkle formation inhibiting effect (replica image analysis) ([3]; 1% in 90% EtOH) | effect of inhibiting the decrease in skin elasticity (Ue) ([4]; 1% in 90% EtOH) | photoaging-preventing and wrinkle-preventing effects (comprehensive evaluation) ([5]; 1% in 90% EtOH) | other results |
| --- | --- | --- | --- | --- | --- |
| CCN(CCCc1ccccc1)CCCc1ccccc1 [alverine] | – | – | – | – | toxicity [1]: high toxicity |
| CCCCCCCCCCCC(=O)OCCN(C)C [compound 1, 2-dimethylamino-ethyl dodecanoate] | decrease in this order | decrease in this order | decrease in this order | high | wrinkle formation inhibiting effect (wrinkle score, visual evaluation) ([2]; 3% in 90% EtOH): decrease in this order; wrinkle formation inhibiting effect (replica image analysis) ([3]; 3% in 90% EtOH): decrease in this order; effect of inhibiting the decrease in skin elasticity (Ue) ([4]; 3% in 90% EtOH): decrease in this order; photoaging-preventing and wrinkle-preventing effects (comprehensive evaluation) ([5]; 3% in 90% EtOH): high; wrinkle score (wrinkle-improving effect, visual evaluation) [6]: lower than that of the 90% EtOH control group |
| CCCCCCCCCCCCNC(=O)CN(C)C [compound 2, 2-Dimethylamino-N-dodecyl-acetamide] | decrease in this order | decrease in this order | decrease in this order | high | – |
| CCCCCCCCCCCCOC(=O)CN(C)C [compound 3, Dodecyl dimethylamino acetate] | decrease in this order | decrease in this order | decrease in this order | high | – |
| CCCCCCCCCCCCOCCN(C)C [compound 4, (2-dodecyloxy-ethyl)-dimethylamine] | – | – | – | – | wrinkle formation inhibiting effect (wrinkle score, visual evaluation) ([2]; 0.1% in 90% EtOH): decrease in this order; wrinkle formation inhibiting effect (replica image analysis) ([3]; 0.1% in 90% EtOH): decrease in this order; effect of inhibiting the decrease in skin elasticity (Ue) ([4]; 0.1% in 90% EtOH): decrease in this order; photoaging-preventing and wrinkle-preventing effects (comprehensive evaluation) ([5]; 0.1% in 90% EtOH): high |
| CCCCCCCCCCCC(=O)NCCN(C)C [compound 5, (2-dimethylaminoethyl)-amide dodecanoate] | maximum effect of inhibiting wrinkle formation | maximum effect of inhibiting wrinkle formation | maximum effect of inhibiting the decrease in skin elasticity | high | – |
